From patent US20020022718A1, “Genes identified as required for proliferation of E. coli” (priority 1999, published 2002)
≈ marks a conversion by molar mass, not a printed value. Read-outs that look alike come from different tables or passages of the source. Bridge positions count the residues as written; N and C are the ends. Square brackets hold non-standard residues; d marks the D form. Peptide text beside a SMILES is read from it. * marks the point of attachment. Ileψ(thiazoline)Cys = CC[C@H](C)[C@H](N)C1=N[C@H](C(=O)*)CS1; dOrn = NCCC[C@@H](N)C(=O)O

Key:
[1] = test system: Bacterial cells expressing antisense nucleic acid complementary to rplL and rplJ (50S ribosomal subunit proteins); experiment: microbe, parasite or virus in culture; type: cell-based, E. coli; conditions: for IC50: Escherichia coli; for Fold Increase in Sensitivity: IC50 −IPTG versus +IPTG (400 μM); for Sensitivity Increased?: significant decrease in IC50 in the presence of inducer IPTG
Procedure: Two-fold dilution series of antibiotics with a known mechanism of action are generated in the culture media selected for further assay development that has been supplemented with the antibiotic used to maintain the construct. A panel of test antibiotics known to act on different pathways is tested side by side with three to four wells being used to evaluate the effect of a test antibiotic on cell growth at each concentration. Equal volumes of test antibiotic and cells are added to the wells of a 384 well microtiter plate and mixed. Cells are prepared as described above using the media selected for assay development supplemented with the antibiotic required to maintain the antisense construct and are diluted 1:100 in identical media immediately prior to addition to the microtiter plate wells. For a control, cells are also added to several wells that contain the solvent used to dissolve the antibiotics but no antibiotic. Cell growth is monitored continuously by incubation at 37° C. in a microtiter plate reader monitoring the OD600 of the wells over an 18-hour period. […] A plot of percent inhibition against log[antibiotic concentration] allows extrapolation of an IC50 value for each antibiotic.
The culture media selected for use in the assay is supplemented with inducer at concentrations shown to inhibit cell growth by 50% and 80% as described above and the antibiotic used to maintain the construct. Two fold dilution series of the panel of test antibiotics used above are generated in each of these media. Several antibiotics are tested side by side with three to four wells being used to evaluate the effects of an antibiotic on cell growth at each concentration, in each media. Equal volumes of test antibiotic and cells are added to the wells of a 384 well microtiter plate and mixed. Cells are prepared as described above using the media selected for use in the assay supplemented with the antibiotic required to maintain the antisense construct. […] Immediately prior to addition to the microtiter plate wells, the cultures are adjusted to an appropriate OD600 (typically 0.002) by dilution into warm (37° C.) sterile media supplemented with identical concentrations of the inducer and antibiotic used to maintain the antisense construct. For a control, cells are also added to several wells that contain solvent used to dissolve test antibiotics but which contain no antibiotic. Cell growth is monitored continuously by incubation at 37° C. in a microtiter plate reader monitoring the OD600 of the wells over an 18-hour period. […] A plot of percent inhibition against log[antibiotic concentration] allows extrapolation of an IC50 value for each antibiotic.
Antibiotics of various chemical classes and modes of action were purchased from Sigma Chemicals (St. Louis, Mo.). Stock solutions were prepared by dissolving each antibiotic in an appropriate aqueous solution based on information provided by the manufacturer. The final working solution of each antibiotic contained no more than 0.2% (w/v) of any organic solvent. To determine their potency against a bacterial strain engineered for expression of an antisense complementary to a proliferation-required gene encoding 50S ribosomal protein, each antibiotic was serially diluted two or three fold in growth medium supplemented with the appropriate antibiotic for maintenance of the anti-sense construct. At least ten dilutions were prepared for each antibiotic. 25 μL aliquots of each dilution were transferred to discrete wells of a 384-well microplate (the assay plate) using a multi-channel pipette. Quadruplicate wells were used for each dilution of an antibiotic under each treatment condition (plus and minus inducer). Each assay plate contained twenty wells for cell growth controls (growth media replacing antibiotic), ten wells for each treatment (plus and minus inducer, in this example IPTG).

Klebsiella pneumoniae = experiment: Growth inhibition by induced E. coli antisense RNA in Klebsiella pneumoniae; type: cell-based; set-up: key: +: a positive in Table V below means that at least 10 fold more cells were required to observe a colony on the induced plate than on the non-induced plate; −: If there was no effect of antisense RNA expression in a microorganism, the clone is minus in Table V below; conditions: antisense RNA expression induced with IPTG, serial dilution plating
Procedure: To study the effects of transcriptional induction in liquid medium, growth curves were carried out by back diluting cultures 1:200 into fresh media with or without 1 mM IPTG and measuring the OD450 every 30 minutes (min). To study the effects of transcriptional induction on solid medium, 10^2, 10^3, 10^4, 10^5, 10^6, 10^7 and 10^8 fold dilutions of overnight cultures were prepared. Aliquots of from 0.5 to 3 μl of these dilutions were spotted on selective agar plates with or without 1 mM IPTG. After overnight incubation, the plates were compared to assess the sensitivity of the clones to IPTG.
Molecule No. EcXA190, encoding a portion of the b3052 gene of Escherichia coli, was either transformed directly into Enterobacter cloacae, Salmonella typhimurium and/or Klebsiella pneumoniae or subcloned into an expression vector functional in these species and the subclones transformed into these organisms. Suitable expression vectors are well known in the art. These expression vectors were introduced into Enterobacter cloacae, Salmonella typhimurium and/or Klebsiella pneumoniae cells that were then assayed for growth inhibition according to the method of Example 1. After growth in liquid culture, cells were plated at various serial dilutions and a score determined by calculating the log difference in growth for INDUCED vs. UNINDUCED antisense RNA expression as determined by the maximum 10 fold dilution at which a colony was observed. If there was no effect of antisense RNA expression in one organism, the clone is given a score of zero “0” in that organism. In contrast, a score of “8” means that 10^8 times more cells were required to observe a colony formed on the induced state than in the non-induced state under the conditions used and in that organism.
In addition, the above methods were validated using other antisense nucleic acids which inhibit the growth of E. coli which were identified using methods similar to those described above. Expression vectors which inhibited growth of E. coli upon induction of antisense RNA expression with IPTG were transformed directly into Enterobacter cloacae, Klebsiella pneumonia or Salmonella typhimurium. The transformed cells were then assayed for growth inhibition according to the method of Example 1. After growth in liquid culture, cells were plated at various serial dilutions and a score determined by calculating the log difference in growth for INDUCED vs. UNINDUCED antisense RNA expression as determined by the maximum 10 fold dilution at which a colony was observed. If there was no effect of antisense RNA expression in a microorganism, the clone is minus in Table V below. In contrast, a positive in Table V below means that at least 10 fold more cells were required to observe a colony on the induced plate than on the non-induced plate under the conditions used and in that microorganism.

Molecule | IC50 ([1]; read-out: IC50 (+IPTG)) | IC50 ([1]; read-out: IC50 (−IPTG)) | Fold Increase in Sensitivity [1] | Sensitivity Increased? [1] | IC50 (+IPTG) ([1]; antisense to rplL and rplJ induced, 400 μM IPTG) | IC50 (−IPTG) ([1]; non-induced cells, 0 μM IPTG) | Sensitivity of K. pneumoniae to antisense nucleic acid (growth inhibition, induced vs. uninduced) (Klebsiella pneumoniae)
CC[C@H](C)[C@H](N)C1=N[C@H](C(=O)N[C@@H](CC(C)C)C(=O)N[C@H](CCC(=O)O)C(=O)N[C@H](C(=O)N[C@H]2CCCCNC(=O)[C@H](CC(N)=O)NC(=O)[C@@H](CC(=O)O)NC(=O)[C@H](Cc3cnc[nH]3)NC(=O)[C@@H](Cc3ccccc3)NC(=O)[C@H]([C@@H](C)CC)NC(=O)[C@@H](CCCN)NC2=O)[C@@H](C)CC)CS1 [Bacitracin] ({Ileψ(thiazoline)Cys}-L[dE]IK[dOrn]I[dF]H[dD]N; lactam 4-C) | 4.68 µg/mL (≈ 3.29 µM) | 4.08 µg/mL (≈ 2.87 µM) | 1 | No |  |  | 
CO/N=C(\C(=O)N[C@@H]1C(=O)N2C(C(=O)O)=C(COC(C)=O)CS[C@H]12)c1csc(N)n1 [Cefotaxime] | 0.0242 µg/mL (≈ 0.053 µM) | 0.0243 µg/mL (≈ 0.0534 µM) | 1 | No |  |  | 
CO[C@@]1(NC(=O)Cc2cccs2)C(=O)N2C(C(=O)O)=C(COC(N)=O)CS[C@@H]21 [Cefoxitin] | 2.48 µg/mL (≈ 5.81 µM) | 2.78 µg/mL (≈ 6.51 µM) | 1 | No |  |  | 
O=C(N[C@H](CO)[C@H](O)c1ccc([N+](=O)[O-])cc1)C(Cl)Cl [Chloramphenicol] | 0.00152 µg/mL (≈ 0.00469 µM) | 0.465 µg/mL (≈ 1.44 µM) | 307 | Yes |  |  | 
C[C@H]1c2cccc(O)c2C(=O)C2=C(O)[C@]3(O)C(=O)C(C(N)=O)=C(O)[C@@H](N(C)C)[C@@H]3[C@@H](O)[C@@H]21 [Doxycycline] | 0.0278 µg/mL (≈ 0.0626 µM) | 0.413 µg/mL (≈ 0.929 µM) | 15 |  |  |  | 
CC(=O)O[C@H]1C[C@@]2(C)[C@@H](C[C@@H](O)[C@H]3[C@@]4(C)CC[C@@H](O)[C@@H](C)[C@@H]4CC[C@@]32C)/C1=C(\CCC=C(C)C)C(=O)O [Fusidic acid] | 0.641 µg/mL (≈ 1.24 µM) | 60 µg/mL (≈ 116 µM) | 94 | Yes |  |  | 
CCC[C@@H]1C[C@@H](C(=O)N[C@@H]([C@H]2O[C@H](SC)[C@H](O)[C@@H](O)[C@H]2O)[C@@H](C)O)N(C)C1 [Lincomycin] | 0.324 µg/mL (≈ 0.797 µM) | 47.1 µg/mL (≈ 116 µM) | 145 | Yes |  |  | 
CN(C)c1ccc(O)c2c1C[C@H]1C[C@H]3[C@H](N(C)C)C(O)=C(C(N)=O)C(=O)[C@@]3(O)C(O)=C1C2=O [Minocycline] | 0.0039 µg/mL (≈ 0.00852 µM) | 0.668 µg/mL (≈ 1.46 µM) | 172 |  |  |  | 
CC1COc2c(N3CCN(C)CC3)c(F)cc3c(=O)c(C(=O)O)cn1c23 (stereo not drawn) [Ofloxacin] | 0.0459 µg/mL (≈ 0.127 µM) | 0.0496 µg/mL (≈ 0.137 µM) | 1 |  |  |  | 
CN[C@@H]1[C@H](O)[C@H](NC)[C@H]2O[C@@]3(O)C(=O)C[C@@H](C)O[C@H]3O[C@@H]2[C@H]1O [Spectinomycin] | < 0.156 µg/mL | 18.1 µg/mL (≈ 54.3 µM) |  | Yes |  |  | 
[H]/N=C(/N)N[C@H]1[C@H](O)[C@@H](O)[C@H](O[C@@H]2O[C@@H](C)[C@](O)(C=O)[C@H]2O[C@@H]2O[C@@H](CO)[C@H](O)[C@@H](O)[C@@H]2NC)[C@@H](N/C(N)=N\[H])[C@@H]1O [Streptomycin] | 0.161 µg/mL (≈ 0.277 µM) | 11.3 µg/mL (≈ 19.4 µM) | 70 | Yes |  |  | 
CN(C)[C@@H]1C(O)=C(C(N)=O)C(=O)[C@@]2(O)C(O)=C3C(=O)c4c(O)cccc4[C@@](C)(O)[C@H]3C[C@@H]12 [Tetracycline] | 0.00183 µg/mL (≈ 0.00412 µM) | 0.2 µg/mL (≈ 0.449 µM) | 109 |  |  |  | 
NC[C@H]1O[C@H](O[C@H]2[C@H](O)[C@@H](O[C@H]3O[C@H](CO)[C@@H](O)[C@H](N)[C@H]3O)[C@H](N)C[C@@H]2N)[C@H](N)C[C@@H]1O [Tobramycin] | 0.0706 µg/mL (≈ 0.151 µM) | 3.59 µg/mL (≈ 7.69 µM) | 51 | Yes |  |  | 
CN[C@H](CC(C)C)C(=O)N[C@H]1C(=O)N[C@@H](CC(N)=O)C(=O)N[C@H]2C(=O)N[C@H]3C(=O)N[C@H](C(=O)N[C@H](C(=O)O)c4cc(O)cc(O)c4-c4cc3ccc4O)[C@H](O)c3ccc(c(Cl)c3)Oc3cc2cc(c3O[C@@H]2O[C@H](CO)[C@@H](O)[C@H](O)[C@H]2O[C@H]2C[C@](C)(N)[C@H](O)[C@H](C)O2)Oc2ccc(cc2Cl)[C@H]1O [Vancomycin] | 72.5 µg/mL (≈ 50.1 µM) | 145 µg/mL (≈ 100 µM) | 2 | No |  |  | 
Gentamicin |  |  | 141 | Yes | 0.01919 µg/mL | 2.715 µg/mL | 
EcXA119: antisense clone insert to E. coli b2883 (nucleic acid, listed as Escherichia coli) antisense: CTCTTTTTCTTCGAGATGGACGCAGTGAGCAAAGACACAGTTTTTACCGGTCAGGCCGTACTGATGGTAAACATCCAGATAACCATCATGGTCAGGATAAAGCGATTTCACCCAGGCAATTTCATCTTTGTTTTCACAGAGATGGGTATGTACCCACGTATCCGGATATTCTTCTTTCAGGCGTTGCGCCATCGCCATCTGTTCAGGAGATGAGGTCGGGGCGAAGCGTGGCGTAATCGCATATAGCAGACGACC |  |  |  |  |  |  | −
EcXA120: antisense clone insert to E. coli b1509 (nucleic acid, listed as Escherichia coli) antisense: TCCGCGATCGCGGATAAAAAGGAGGATTTAAATAAGGCGTTGATGCGCCGTTTGAAGTCGGCAATATTAAGCCGCATGCCATCTCGACATGCGGCTTATACGGTTTACCAGCTATATTTCACTCCCAGCATGCCCTGAGTATCGCTATAGCCTTTATCACCTAGTTGCACACCGACATTCCCCCACAGGCTAAGGTTGTTATTTACTTTCGCCTCAACCCCGGTACGTACTTCACCGAGATTACGCGCACCTTCACGGCCTACGGTTTGACCATTCATCTTCACGGCGTAGACTTTGCTATTGTTGATCCAGTTCGCTTCAATGTAAGGCTGGAACTCACGCTGTTTACCATCGTCACGCTGGTGATGGCTGTTCAGGTAGGTTTTCACCCCAAG |  |  |  |  |  |  | −
